For 63 compounds, IC50 results are on record in ChEMBL document CHEMBL3879881, “Substituted pyrazolyl compounds for the treatment of inflammation” (2005).

Broadly, the IC50 is the concentration at which inhibition is half-maximal.

Molecules are shown by their SMILES.

The experiment deals with T1, Inhibitor of nuclear factor kappa-B kinase subunit beta (Homo sapiens, UniProt O14920).
T1 sequence (O14920 whole entry): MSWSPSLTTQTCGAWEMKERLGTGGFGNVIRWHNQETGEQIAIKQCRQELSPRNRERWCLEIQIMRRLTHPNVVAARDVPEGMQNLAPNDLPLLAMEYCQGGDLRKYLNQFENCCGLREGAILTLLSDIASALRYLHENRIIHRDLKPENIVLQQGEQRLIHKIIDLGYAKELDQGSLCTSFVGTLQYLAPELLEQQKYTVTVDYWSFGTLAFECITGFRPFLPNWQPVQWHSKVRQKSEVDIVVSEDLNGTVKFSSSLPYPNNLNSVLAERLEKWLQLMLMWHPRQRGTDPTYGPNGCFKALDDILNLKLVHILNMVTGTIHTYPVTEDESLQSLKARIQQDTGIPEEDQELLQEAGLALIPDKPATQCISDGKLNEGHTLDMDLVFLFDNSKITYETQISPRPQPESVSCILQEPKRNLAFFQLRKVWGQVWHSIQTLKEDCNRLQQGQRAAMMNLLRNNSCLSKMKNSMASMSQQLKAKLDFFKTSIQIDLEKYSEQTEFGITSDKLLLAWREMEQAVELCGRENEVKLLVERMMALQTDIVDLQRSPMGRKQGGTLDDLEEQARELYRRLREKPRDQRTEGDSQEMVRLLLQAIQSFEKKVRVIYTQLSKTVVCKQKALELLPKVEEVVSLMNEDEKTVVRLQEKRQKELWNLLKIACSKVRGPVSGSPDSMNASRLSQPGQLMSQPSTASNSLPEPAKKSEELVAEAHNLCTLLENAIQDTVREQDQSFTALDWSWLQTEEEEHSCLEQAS
Kind of experiment: Inhibition of human recombinant C-terminal FLAG-epitope-tagged IKK2 expressed in baculovirus using biotinylated IkappaBalpha peptide as substrate assessed as decrease in [gamma-33P]-ATP incorporation in substrate after 30 mins by scintillation counting method.

Regarding `CN(C)CCOc1ccc(Cl)c(C(=O)Nc2ccc3c(c2)-c2c(c(C(N)=O)nn2-c2ccc4c(c2)OCO4)CC3)c1`, the IC50 lay in the range of 1 to 10 µM.

Turning to `CC(C)N1CCN(c2cc(C(=O)Nc3ccc4c(c3)-c3c(c(C(N)=O)nn3-c3ccc(F)cc3)CC4)c(Cl)cn2)CC1`, the IC50 was no more than 1 µM. Next, `C[S+]([O-])c1ccc(-n2nc(C(N)=O)c3c2-c2cc(NC(=O)c4cc(N)ccc4Cl)ccc2CC3)cc1` (stereo not drawn): no more than 1 µM. For the compound `CN1CCN(c2cc(C(=O)Nc3ccc4c(c3)-c3c(c(C(N)=O)nn3-c3ccncc3)CC4)c(Cl)cn2)CC1`, the IC50 is no more than 1 µM. Next, `N#Cc1ccc(Cl)c(C(=O)Nc2ccc3c(c2)-c2c(c(C(N)=O)nn2-c2ccc4c(c2)OCO4)CC3)n1`: 1 to 10 µM; `CS(=O)(=O)c1ccc(-n2nc(C(N)=O)c3c2-c2cc(NC(=O)c4cnccc4Cl)ccc2CC3)cc1`: 1 to 10 µM. The result for `NC(=O)c1nn(-c2ccc(S(N)(=O)=O)cc2)c2c1CCc1ccc(NS(=O)(=O)c3ccc(Br)cc3)cc1-2` reads 1 to 10 µM.

On to `CCC(=O)Nc1ccc2c(c1)-c1c(c(C(N)=O)nn1-c1ccc(S(N)(=O)=O)cc1)CC2`, for which the IC50 was in the range of 1 to 10 µM. The result for `NC(=O)c1nn(-c2ccc(O)cc2)c2c1CCc1ccc(NC(=O)c3cc([N+](=O)[O-])ccc3Cl)cc1-2` reads no more than 1 µM; that for `CN1CCN(c2ccc(Cl)c(C(=O)Nc3ccc4c(c3)-c3c(c(C(N)=O)nn3-c3ccc5c(c3)OCO5)CC4)c2)CC1`, no more than 1 µM. On to `Cc1cccc(C(=O)Nc2ccc3c(c2)-c2c(c(C(N)=O)nn2-c2ccc(S(N)(=O)=O)cc2)CC3)c1`, for which the IC50 is no more than 1 µM.

Regarding `COc1ccc(C(=O)Nc2ccc3c(c2)-c2c(c(C(N)=O)nn2-c2ccc(S(N)(=O)=O)cc2)CC3)cc1OC`, the IC50 was 1 to 10 µM. Next, `C[S+]([O-])c1ccc(-n2nc(C(N)=O)c3c2-c2cc(NC(=O)c4cc5c(cc4Cl)OCO5)ccc2CC3)cc1` (stereo not drawn): no more than 1 µM; `NC(=O)c1nn(-c2ccc(F)cc2)c2c1CCc1ccc(NC(=O)c3cc(CCN4CCOCC4)ncc3Cl)cc1-2`: no more than 1 µM; `CS(=O)(=O)c1ccc(-n2nc(C(N)=O)c3c2-c2cc(NC(=O)c4cc(S(C)(=O)=O)ccc4Cl)ccc2CC3)cc1`: no more than 1 µM. For `NC(=O)c1nn(-c2ccc(F)c(F)c2)c2c1CCc1ccc(NC(=O)c3cccc(Cl)c3Cl)cc1-2`, the IC50 was in the range of 1 to 10 µM. Next, `NC(=O)c1nn(-c2ccc(S(N)(=O)=O)cc2)c2c1CCc1ccc(NC(=O)c3cccc(Cl)c3Cl)cc1-2`: no more than 1 µM; `CC(C)(C)C(=O)ONCCCCC(=O)Nc1ccc(-n2nc(C(N)=O)c3c2-c2cc(NC(=O)c4ccccc4Cl)ccc2CC3)cc1`: 1 to 10 µM. The result for `COc1ccc(C(=O)Nc2ccc3c(c2)-c2c(c(C(N)=O)nn2-c2ccc(S(N)(=O)=O)cc2)CC3)cc1` reads no more than 1 µM; that for `CC1Cc2c(C(N)=O)nn(-c3ccc(F)cc3)c2-c2cc(NC(=O)c3ccncc3Cl)ccc21` (stereo not drawn), no more than 1 µM; that for `CN(C)C(=O)/C=C/c1ccc(-n2nc(C(N)=O)c3c2-c2cc(NC(=O)c4cccnc4Cl)ccc2CC3)cc1`, 1 to 10 µM. The result for `C[S+]([O-])c1ccc(-n2nc(C(N)=O)c3c2-c2cc(NC(=O)c4cccnc4Cl)ccc2CC3)cc1` (stereo not drawn) reads no more than 1 µM; that for `CS(=O)(=O)c1ccc(-n2nc(C(N)=O)c3c2-c2cc(NC(=O)Cc4ccccc4)ccc2CC3)cc1`, 1 to 10 µM; that for `NC(=O)c1nn(-c2cccc(O)c2)c2c1CCc1ccc(NC(=O)c3cc(N)ccc3Cl)cc1-2`, no more than 1 µM. With `Cc1cccc(C(=O)Nc2ccc3c(c2)-c2c(c(C(N)=O)nn2-c2ccc(S(C)(=O)=O)cc2)CC3)c1[N+](=O)[O-]`, the IC50 was in the range of 1 to 10 µM. Take `CCCS(=O)(=O)Nc1ccc2c(c1)-c1c(c(C(N)=O)nn1-c1ccc(S(N)(=O)=O)cc1)CC2`: the IC50 lay in the range of 1 to 10 µM.

As to `NC(=O)c1nn(-c2cccc(F)c2)c2c1CCc1ccc(NC(=O)c3cccc(Cl)c3F)cc1-2`, the IC50 lay in the range of 1 to 10 µM. The result for `CC(=O)c1ccc(-n2nc(C(N)=O)c3c2-c2cc(NC(=O)c4cccnc4Cl)ccc2CC3)cc1` reads 1 to 10 µM; that for `CC(=O)Nc1ccc2c(c1)-c1c(c(C(N)=O)nn1-c1ccc(S(N)(=O)=O)cc1)CC2`, 10 to 100 µM. For `NC(=O)c1nn(-c2ccc(-c3cccc(C(=O)O)c3)cc2)c2c1CCc1ccc(NC(=O)c3ccccc3Cl)cc1-2`, the 50% inhibitory concentration (IC50) lay within 1 to 10 µM. Next, `C=CCN(CC=C)S(=O)(=O)c1ccc(-n2nc(C(N)=O)c3c2-c2cc(NS(C)(=O)=O)ccc2CC3)cc1`: 1 to 10 µM; `NC(=O)c1nn(-c2ccc3c(c2)OCO3)c2c1CCc1ccc(NC(=O)c3cccnc3N)cc1-2`: 1 to 10 µM; `NC(=O)c1nn(-c2ccc(S(N)(=O)=O)cc2)c2c1CCc1ccc(NC(=O)c3cccc(Br)c3)cc1-2`: no more than 1 µM. The result for `NC(=O)c1nn(-c2ccc(F)cc2)c2c1CCc1ccc(NC(=O)c3ccnc(N4CCOCC4)c3)cc1-2` reads no more than 1 µM. On to `NCc1cc(C(=O)Nc2ccc3c(c2)-c2c(c(C(N)=O)nn2-c2ccc4c(c2)OCO4)CC3)c(Cl)cn1`, for which the IC50 is no more than 1 µM. Turning to `CC(C)CNc1ccc2c(c1)-c1c(c(C(N)=O)nn1-c1ccc(S(N)(=O)=O)cc1)CC2`, the IC50 is 10 to 100 µM. For the compound `CN1CCN(c2ccc(Cl)c(C(=O)Nc3ccc4c(c3)-c3c(c(C(N)=O)nn3-c3ccc(S(C)(=O)=O)cc3)CC4)c2)CC1`, the IC50 was less than 1 µM. The result for `NC(=O)c1nn(-c2ccc(S(N)(=O)=O)cc2)c2c1CCc1ccc(NC(=O)c3cccnc3Cl)cc1-2` reads no more than 1 µM; that for `CC(=O)c1ccc(C(=O)Nc2ccc3c(c2)-c2c(c(C(N)=O)nn2-c2ccc4c(c2)OCO4)CC3)cc1`, 1 to 10 µM. Next, `CCCC(=O)Nc1ccc2c(c1)-c1c(c(C(N)=O)nn1-c1ccc(S(N)(=O)=O)cc1)CC2`: 1 to 10 µM; `CS(=O)(=O)Nc1ccc2c(c1)-c1c(c(C(N)=O)nn1-c1ccc(S(N)(=O)=O)cc1)CC2`: no more than 1 µM. Next, `NC(=O)c1nn(-c2ccc(O)cc2)c2c1CCc1ccc(NC(=O)c3cc4c(cc3Cl)OCO4)cc1-2`: no more than 1 µM. In the case of `C[C@H]1CN(c2cc(C(=O)Nc3ccc4c(c3)-c3c(c(C(N)=O)nn3-c3ccc(F)cc3)CC4)c(Cl)cn2)CCN1C`, the IC50 is no more than 1 µM.

Take `NC(=O)c1nn(-c2ccc(S(N)(=O)=O)cc2)c2c1CCc1ccc(NC(=O)c3ccncc3)cc1-2`: the IC50 is no more than 1 µM. Next, `NC(=O)c1nn(-c2ccc(-c3ccoc3)cc2)c2c1CCc1ccc(NC(=O)c3ccccc3Cl)cc1-2`: 1 to 10 µM. The result for `CN(C)CCC(=O)Nc1ccc(-n2nc(C(N)=O)c3c2-c2cc(NC(=O)c4ccccc4Cl)ccc2CC3)cc1` reads 1 to 10 µM; that for `COc1ccc(-c2ccc(-n3nc(C(N)=O)c4c3-c3cc(NC(=O)c5ccccc5Cl)ccc3CC4)cc2)cc1OC`, 1 to 10 µM; that for `COc1cccc(C(=O)Nc2ccc3c(c2)-c2c(c(C(N)=O)nn2-c2ccc(S(C)(=O)=O)cc2)CC3)c1`, 1 to 10 µM.

Turning to `COc1ccccc1C(=O)Nc1ccc2c(c1)-c1c(c(C(N)=O)nn1-c1ccc(S(N)(=O)=O)cc1)CC2`, the IC50 fell in the range of 10 to 100 µM. For the compound `NC(=O)c1nn(-c2ccc(S(N)(=O)=O)cc2)c2c1CCc1ccc(NS(=O)(=O)c3ccc(Cl)c(Cl)c3)cc1-2`, the 50% inhibitory concentration (IC50) is 1 to 10 µM. Consider `NC(=O)c1nn(-c2ccc3c(c2)OCO3)c2c1CCc1ccc(NC(=O)c3nc(Cl)ccc3Cl)cc1-2`, for which the IC50 fell in the range of 1 to 10 µM. As for `CS(=O)(=O)c1ccc(-n2nc(C(N)=O)c3c2-c2cc(NC(=O)c4cc(Cl)ncc4Cl)ccc2CC3)cc1`, the half-maximal inhibitory concentration (IC50) is no more than 1 µM. For the compound `CC1(C)OCC(COc2ccc(-n3nc(C(N)=O)c4c3-c3cc(NC(=O)c5cccnc5Cl)ccc3CC4)cc2)O1` (stereo not drawn), the IC50 fell in the range of 1 to 10 µM. For the compound `NC(=O)c1nn(-c2ccc(NC(=O)c3ccccc3Cl)cc2)c2c1CCc1ccc(NC(=O)c3ccccc3Cl)cc1-2`, the IC50 was 1 to 10 µM. Regarding `CN(C)S(=O)(=O)c1ccc(-n2nc(C(N)=O)c3c2-c2cc(NC(=O)c4cccc(Cl)c4)ccc2CC3)cc1`, the IC50 lay in the range of 1 to 10 µM. The result for `NC(=O)c1nn(-c2ccc(F)cc2)c2c1CCc1ccc(NC(=O)c3cc4c(cc3Cl)OCO4)cc1-2` reads no more than 1 µM; that for `C[C@@H]1CN(c2cc(C(=O)Nc3ccc4c(c3)-c3c(c(C(N)=O)nn3-c3ccc(F)cc3)CC4)c(Cl)cn2)C[C@H](C)N1C`, no more than 1 µM. The result for `CN(C)CCNc1cc(C(=O)Nc2ccc3c(c2)-c2c(c(C(N)=O)nn2-c2ccc(F)cc2)CC3)c(Cl)cn1` reads no more than 1 µM; that for `NC(=O)c1nn(-c2ccc(S(N)(=O)=O)cc2)c2c1CCc1ccc(NS(=O)(=O)c3ccccc3)cc1-2`, 1 to 10 µM; that for `NC(=O)c1nn(-c2ccc(S(N)(=O)=O)cc2)c2c1CCc1ccc(NC(=O)c3ccco3)cc1-2`, 10 to 100 µM. As to `CS(=O)(=O)Nc1ccc2c(c1)-c1c(c(C(N)=O)nn1-c1ccccc1)CC2`, the IC50 was in the range of 1 to 10 µM.

With `C[S+]([O-])c1ccc(Cl)c(C(=O)Nc2ccc3c(c2)-c2c(c(C(N)=O)nn2-c2ccc(F)cc2)CC3)c1` (stereo not drawn), the 50% inhibitory concentration (IC50) was no more than 1 µM. Consider `NC(=O)c1nn(-c2ccc(S(N)(=O)=O)cc2)c2c1CCc1ccc(NC(=O)C3CCCCC3)cc1-2`, for which the IC50 was in the range of 1 to 10 µM.
